In patent EP4782453A1 (Beyang Therapeutics Co., Ltd., priority 2023, dated 2025):
Read-outs that look alike come from different tables or passages of the source.

Assays:
Menin-MLL = biological target: T1, Menin-MLL (Homo sapiens, UniProt O00255); experiment: Inhibitory activity against Menin-MLL binding (fluorescence polarization); conditions: 150 nM His-Menin, 15 nM FITC-MLL, 25°C for 60 min
T1 construct: His-Menin (M1-L615 end); purchased BIORTUS BP9210
T1 sequence (O00255 1-615 isoform O00255-1): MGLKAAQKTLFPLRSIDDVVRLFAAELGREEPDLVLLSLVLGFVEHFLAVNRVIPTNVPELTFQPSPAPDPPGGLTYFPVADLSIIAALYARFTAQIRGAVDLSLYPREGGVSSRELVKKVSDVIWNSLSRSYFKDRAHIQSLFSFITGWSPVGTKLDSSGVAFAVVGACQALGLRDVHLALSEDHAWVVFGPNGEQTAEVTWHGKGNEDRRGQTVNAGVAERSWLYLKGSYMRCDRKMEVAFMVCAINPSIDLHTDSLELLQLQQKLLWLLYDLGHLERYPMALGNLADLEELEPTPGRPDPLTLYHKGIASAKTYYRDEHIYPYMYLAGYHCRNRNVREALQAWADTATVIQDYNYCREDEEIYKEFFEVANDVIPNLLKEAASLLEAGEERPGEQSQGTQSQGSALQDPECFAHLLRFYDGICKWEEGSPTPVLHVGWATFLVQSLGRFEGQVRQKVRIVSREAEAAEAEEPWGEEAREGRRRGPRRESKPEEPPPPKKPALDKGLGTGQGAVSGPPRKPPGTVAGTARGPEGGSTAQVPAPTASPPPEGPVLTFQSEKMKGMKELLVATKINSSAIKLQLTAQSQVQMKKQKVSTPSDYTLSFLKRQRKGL
Procedure, shortened: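 Fluorescence polarization competition: compound and 150 nM His-tagged menin (residues M1-L615) sit 15 min at 25 °C in pH 7.5 HEPES buffer with NaCl, DTT and BSA; 15 nM FITC-labelled MLL peptide then binds for 60 min. IC50 fitted sigmoidally from mP values, duplicate wells.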

[1] = test system: MOLM-13 (carrying MLL-AF9); experiment: Inhibition of proliferation of human tumor cells (Alamar Blue, 7 days), MOLM-13; format: cell-based; conditions: Homo sapiens, MOLM-13 cells (carrying MLL-AF9), method calls the value GI50
Procedure, shortened: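 GI50 values reflect growth inhibition over 7 days, read by Alamar Blue. Seeding density was 4,000 cells/well except KG-1a (3,000 cells/well); each line grew in its own FBS-containing medium at 37°C.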

[2] = test system: MV-4-11 (carrying MLL-AF4); experiment: Inhibition of proliferation of human tumor cells (Alamar Blue, 7 days), MV-4-11; format: cell-based; conditions: Homo sapiens, MV4-11, 168 h, MV-4-11 cells (carrying MLL-AF4), method calls the value GI50
Text: Experimental Example 2: Evaluation of Inhibitory Activity of Compounds Against Proliferation of Human Tumor Cells
• Human acute lymphoblastic leukemia cells MV-4-11, purchased from American Type Culture Collection, Catalog Number: CRL-9591; • Human acute myeloid leukemia cells MOLM-13, purchased from COBIOER BIOSCIENCES CO., LTD, Catalog Number: CBP60678; • Human acute myeloid leukemia cells KG-1a, purchased from American Type Culture Collection, Catalog Number: CCL-246.1; • Inverted Microscope, purchased from Olympus Tokyo; • Countess™ Automated Cell Counter, purchased from Invitrogen, Model: C10281; and • Multilabel Reader, purchased from Bio-Tek, Model: Synergy HT.
MV-4-11 cells were cultured in an IMDM medium containing 10% fetal bovine serum, KG-a cells were cultured in an IMDM medium containing 20% fetal bovine serum, or MOLM-13 cells were cultured in an RPMI-1640 medium containing 20% fetal bovine serum, each supplemented with 100 U·mL^-1 penicillin and 100 µg·mL^-1 streptomycin. These cells were cultured at 37°C with 5% CO2. The suspensions of individual cell lines were prepared in their respective media and seeded into 96-well plates at a density of 4,000 cells/well for MV-4-11 and MOLM-13 cells, or 3,000 cells/well for KG-1a cells. On the day of the experiment, a compound stock solution was diluted in a 3-fold or 4-fold gradient using DMSO. Each gradient-diluted stock solution was then further diluted 250-fold with a complete medium to prepare a series of working solutions at different concentrations. Subsequently, 100 µL of working solution (containing a 2-fold concentration series of the test compound) was added to each well, with duplicate wells set up for each concentration.
Seven days after compound addition (on Day 7), an Alamar Blue assay reagent (MCE, HY-111391 / CS-0040317) was added to measure the fluorescence intensity in each well. Wells containing the cells in the growth medium supplemented with 0.1% DMSO (Day 7) served as high-read control wells. The readouts from the wells containing the cells in the growth medium supplemented with 0.1% DMSO on the day of compound addition (Day 0) served as low-reading control well. GraphPad Prism software was used to calculate the concentration required to inhibit 50% of cell proliferation (GI50), which serves as a cell proliferation inhibition activity index.

[3] = fluorescence polarization, read-out: Menin-MLL IC50

Row | SMILES | IC50 (Menin-MLL; [3]) [nM] | IC50 ([1]; 168 h) [nM] | IC50 [2] [nM] | IC50 (Menin-MLL; Menin-MLL IC50, fluorescence polarization) [nM] | IC50 ([1]; MOLM-13, 168 h) [nM]
1 | Cc1ncc2c(-c3ccc(F)cc3C(=O)N(CC(F)F)C(C)C)cc(C3CN(C(=O)[C@@H]4CCCCN4)C3)cn12 [Example 133] | 30 | 31 | 49 | – | –
2 | CCN(C(=O)c1cc(F)ccc1-c1cc(C2CN([C@H](CCCN3CCN(C)CC3)C(C)C)C2)cc2c1cnn2C)C(C)C [Example 420] | 3.8 | 43 | 18 | – | –
3 | Cc1nc(F)c2c(-c3ccc(F)cc3C(=O)N3CCOC[C@H]3C)cc(C3CN(CC4CCN(C(=O)C(F)F)CC4)C3)cn12 [Example 268] | 32.5 | 96 | 36 | – | –
4 | CNCCCC(C(C)C)N1CC(c2cc(-c3ccc(F)cc3C(=O)N(CC(F)F)C(C)C)c3cnc(C)n3c2)C1 (stereo not drawn) [Example 148] | 9 | 3.6 | 0.95 | – | –
5 | CCS(=O)(=O)N[C@@H]1CC[C@@H](CN2CC(c3cc(-c4ccc(F)cc4C(=O)N(CC(F)F)C(C)C)c4c(F)nc(C)n4c3)C2)OC1 [Example 151] | 15.5 | 61 | 40 | – | –
6 | Cc1nc(F)c2c(-c3ccc(F)cc3C(=O)N3[C@H](C)COC[C@H]3C)cc(C3CN(CC4CCN(C(=O)c5cncnc5)CC4)C3)cn12 [Example 234] | 11 | 14 | 5.8 | – | –
7 | CCC(=O)N1CCC(CN2CC(c3cc(-c4ccc(F)cc4C(=O)N4[C@H](C)COC[C@H]4C)c4c(F)nc(C)n4c3)C2)CC1 [Example 231] | 22.5 | 16 | 6.1 | – | –
8 | CCN(C(=O)c1cc(F)ccc1-c1cc(C2CN(C(C)C3CCN(C(C)=O)CC3)C2)cn2c(C)nc(F)c12)C(C)C (stereo not drawn) [Example 288] | 6 | 55 | 15 | – | –
9 | Cc1ncc2c(-c3ccc(F)cc3C(=O)N3[C@H](C)COC[C@H]3C)cc(C3CN(CC4CCOCC4)C3)cn12 [Example 212, (3R,5R)-4-[5-fluoro-2-(3-methyl-6-{1-[(oxacyclohexan-4-yl)methyl]azacyclobutan-3-yl}imidazo[1,5-a]pyridin-8-yl)benzoyl]-3,5-dimethylmorpholine] | 12.5 | 31 | 16 | – | –
10 | CC(=O)N1CCC(CN2CC(c3cc(-c4ccc(F)cc4C(=O)N4CCOC[C@H]4C)c4c(F)nc(C)n4c3)C2)CC1 [Example 225] | 28 | 60 | 25 | – | –
11 | CCN(C(=O)c1cc(F)ccc1-c1cc(C2CN([C@H](CCCN(C)CCOC)C(C)C)C2)cn2c(C)nc(F)c12)C(C)C [Example 307-2, N-ethyl-5-fluoro-2-(1-fluoro-6-{1-[(3R)-6-[(2-methoxyethyl)(methyl)amino]-2-methylhexan-3-yl]azacyclobutan-3-yl}-3-methylimidazo[1,5-a]pyridin-8-yl)-N-(isopropyl)benzamide] | 6 | 3.7 | 0.69 | – | –
12 | CCS(=O)(=O)N[C@@H]1CC[C@@H](CN2CC(c3cc(-c4ccc(F)cc4C(=O)N(CC(F)F)C(C)C)c4cnc(C)n4c3)C2)OC1 [Example 150, N-(2,2-difluoroethyl)-2-[6-(1-{[(2S,5R)-5-ethanesulfonamidooxacyclohexan-2-yl]methyl}azacyclobutan-3-yl)-3-methylimidazo[1,5-a]pyridin-8-yl]-5-fluoro-N-(isopropyl)benzamide] | 24.5 | 36 | 21 | – | –
13 | CCN(C(=O)c1cc(F)ccc1-c1cc(CC2CN([C@H](CCCN(C)CCOC)C(C)C)C2)n2c(C)cncc12)C(C)C [Example 296-1, N-ethyl-5-fluoro-2-[6-({1-[(3R)-6-[(2-methoxyethyl)(methyl)amino]-2-methylhexan-3-yl]azacyclobutan-3-yl}methyl)-4-methylpyrrolo[1,2-a]pyrazin-8-yl]-N-(isopropyl)benzamide] | 1 | 3 | 0.75 | – | –
14 | Cc1nc(F)c2c(-c3ccc(F)cc3C(=O)N3CCOC[C@H]3C)cc(C3CN([C@@H](C)C4CCN(C(=O)C5(O)CC5)CC4)C3)cn12 [Example 278] | 11 | 24 | 8.3 | – | –
15 | Cc1nc(F)c2c(-c3ccc(F)cc3C(=O)N3[C@H](C)COC[C@H]3C)cc(C3CN([C@H](C)C4CCOCC4)C3)cn12 [Example 209-1, (3R,5R)-4-[5-fluoro-2-(1-fluoro-3-methyl-6-{1-[(1R)-1-(oxacyclohexan-4-yl)ethyl]azacyclobutan-3-yl}imidazo[1,5-a]pyridin-8-yl)benzoyl]-3,5-dimethylmorpholine] | 29.5 | 21 | 12 | – | –
16 | CCS(=O)(=O)N[C@H]1CC[C@H](CN2CCC(c3cc(-c4ccc(F)cc4C(=O)N(CC(F)F)C(C)C)c4cnccn34)CC2)CC1 [Example 139, N-(2,2-difluoroethyl)-5-fluoro-N-(isopropyl)-2-[6-(1-{[(1r,4r)-4-ethanesulfonamidocyclohexyl]methyl}piperidin-4-yl)pyrrolo[1,2-a]pyrazin-8-yl]benzamide] | – | – | 44 | 42 | 96
17 | CNCCCC(C(C)C)N1CC(c2cc(-c3ccc(F)cc3C(=O)N(CC(F)F)C(C)C)c3c(F)nc(C)n3c2)C1 (stereo not drawn) [Example 141, N-(2,2-difluoroethyl)-5-fluoro-2-(1-fluoro-3-methyl-6-{1-[2-methyl-6-(methylamino)hexan-3-yl]azacyclobutan-3-yl}imidazo[1,5-a]pyridin-8-yl)-N-(isopropyl)benzamide] | 5.5 | 5.4 | 1.1 | – | –
18 | Cc1nc(F)c2c(-c3ccc(F)cc3C(=O)N3[C@H](C)COC[C@H]3C)cc(C3CN(CC4CCN(C(=O)c5cn[nH]c5)CC4)C3)cn12 [Example 247] | 9.5 | 22 | 9.2 | – | –
19 | CNC(=O)N1CCC(CN2CC(c3cc(-c4ccc(F)cc4C(=O)N4[C@H](C)COC[C@H]4C)c4c(F)nc(C)n4c3)C2)CC1 [Example 222] | 7 | 9 | 4.4 | – | –
20 | Cc1nc(F)c2c(-c3ccc(F)cc3C(=O)N3[C@H](C)COC[C@H]3C)cc(C3CN(CC4CCN(C(=O)C5(O)CC5)CC4)C3)cn12 [Example 214] | 5 | 12 | 7.5 | – | –
21 | Cc1nc(F)c2c(-c3ccc(F)cc3C(=O)N3[C@H](C)COC[C@H]3C)cc(C3CN(CC4CCN(C(=O)C(F)F)CC4)C3)cn12 [Example 219] | 12 | 14 | 12 | – | –
